Broadly, the IC50 is the point on the concentration scale where inhibition reaches its midpoint. In general, Ki refers to a measure of affinity in units of concentration, obtained from inhibition or displacement.

Calls of active or inactive are those of the source.

One assay has as its target Melanocortin receptor 4 (Homo sapiens, UniProt P32245). Briefly: MC4R antagonist potency on cAMP, dose response, cell-based, TR-FRET, biased antagonists (AID 602298).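 Note: antagonist potency against agonist-stimulated cAMP production.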 The assay is classed as functional.
A short description of assay [1]: nonselective inhibitors of cellular cAMP signaling, dose response, counter-screen for MC4R biased antagonist project, cell-based, TR-FRET cAMP detection (AID 602305).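 Note: U2OS cells stimulated with forskolin near its EC80 as the cAMP inducer; potency is for inhibition of forskolin-stimulated cAMP signaling.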 In kind it is functional. In general terms: A counterscreen serves to expose hits that act by an unwanted route or on another target.
The target of assay [2] is Potassium voltage-gated channel subfamily KQT member 2 (Rattus norvegicus, UniProt O88943). Kind of assay: KCNQ2 potassium channel inhibitors, dose response, cell-based, automated electrophysiology, set II, rat KCNQ2 (AID 588637). The assay is classed as functional.
For assay [3], the target named is Glyceraldehyde-3-phosphate dehydrogenase (Homo sapiens, UniProt P04406).
Assay [4] concerns the target 72 kDa type IV collagenase (Homo sapiens, UniProt P08253). Briefly: Dose Response validation of uHTS RPN11 inhibitor hits using a MMP-2 Fluorescence assay. The assay is classed as functional.
For the next assay, the target named is Prothrombin (Bos taurus, UniProt P00735). Briefly: thrombin inhibition, dose response, biochemical, fluorescence polarization, uHTS hits (AID 602369). The assay is classed as functional. In general terms: Fluorescence polarisation rises when a labelled molecule tumbles more slowly, as on binding a larger partner.
For assay [5], the target named is 26S proteasome non-ATPase regulatory subunit 14 (Homo sapiens, UniProt O00487). Kind of assay: inhibition of proteasome subunit RPN11 – biochemical, fluorescence polarization, uHTS hits, confirmation (AID 602368). In kind it is functional.
Assay [6] concerns the target T1, Carboxy-terminal domain RNA polymerase II polypeptide A small phosphatase 1 (Homo sapiens, UniProt Q9GZU7).
T1 sequence (Q9GZU7 whole entry): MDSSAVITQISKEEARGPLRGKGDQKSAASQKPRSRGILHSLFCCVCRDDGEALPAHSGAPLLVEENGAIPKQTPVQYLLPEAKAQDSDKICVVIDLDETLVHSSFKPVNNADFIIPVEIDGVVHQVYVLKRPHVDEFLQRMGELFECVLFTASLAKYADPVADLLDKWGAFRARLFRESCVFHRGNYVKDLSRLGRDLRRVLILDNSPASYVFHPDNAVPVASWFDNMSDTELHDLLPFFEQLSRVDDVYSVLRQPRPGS
Kind of assay: inhibitors of CTDSP1, concentration-response testing, biochemical assay, absorbance-based, actives from ultra-high-throughput screening (AID 540297). The assay is classed as functional.

For assay [7], the target named is T2, Sentrin-specific protease 7 (Homo sapiens, UniProt Q9BQF6).
T2 sequence (Q9BQF6 whole entry): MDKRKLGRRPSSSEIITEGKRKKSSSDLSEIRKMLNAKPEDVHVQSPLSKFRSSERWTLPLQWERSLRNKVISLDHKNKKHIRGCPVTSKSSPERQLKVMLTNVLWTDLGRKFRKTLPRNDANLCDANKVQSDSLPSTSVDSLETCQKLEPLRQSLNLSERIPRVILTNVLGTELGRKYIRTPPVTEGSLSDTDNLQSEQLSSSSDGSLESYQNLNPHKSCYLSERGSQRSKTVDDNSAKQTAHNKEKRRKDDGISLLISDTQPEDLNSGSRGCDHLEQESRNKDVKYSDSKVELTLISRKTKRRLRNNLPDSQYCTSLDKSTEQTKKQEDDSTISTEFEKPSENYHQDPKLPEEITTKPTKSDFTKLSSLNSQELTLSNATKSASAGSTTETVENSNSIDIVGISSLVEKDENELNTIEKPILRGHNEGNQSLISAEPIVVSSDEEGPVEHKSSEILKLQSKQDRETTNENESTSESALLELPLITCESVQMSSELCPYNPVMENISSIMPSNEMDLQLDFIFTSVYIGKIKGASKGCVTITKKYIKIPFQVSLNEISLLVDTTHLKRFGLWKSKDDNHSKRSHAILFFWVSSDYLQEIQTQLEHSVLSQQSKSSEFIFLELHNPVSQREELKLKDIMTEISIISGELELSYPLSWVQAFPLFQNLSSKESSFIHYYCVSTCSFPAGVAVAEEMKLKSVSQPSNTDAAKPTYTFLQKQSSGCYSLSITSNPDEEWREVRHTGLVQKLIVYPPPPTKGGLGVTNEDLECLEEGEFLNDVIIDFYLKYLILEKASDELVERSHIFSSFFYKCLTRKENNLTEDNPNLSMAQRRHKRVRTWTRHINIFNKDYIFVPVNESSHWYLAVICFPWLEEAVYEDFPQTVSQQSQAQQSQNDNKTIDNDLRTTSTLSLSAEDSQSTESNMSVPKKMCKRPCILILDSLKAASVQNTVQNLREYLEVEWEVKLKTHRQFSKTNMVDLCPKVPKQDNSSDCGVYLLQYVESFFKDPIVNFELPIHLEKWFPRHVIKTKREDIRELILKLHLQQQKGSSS
Briefly: SENP7 protease inhibitors, SAR follow-up, biochemical, luminescence (AID 504497). The assay is classed as functional.

Assay [8] addresses T3, Sentrin-specific protease 8 (Homo sapiens, UniProt Q96LD8).
T3 sequence (Q96LD8 whole entry): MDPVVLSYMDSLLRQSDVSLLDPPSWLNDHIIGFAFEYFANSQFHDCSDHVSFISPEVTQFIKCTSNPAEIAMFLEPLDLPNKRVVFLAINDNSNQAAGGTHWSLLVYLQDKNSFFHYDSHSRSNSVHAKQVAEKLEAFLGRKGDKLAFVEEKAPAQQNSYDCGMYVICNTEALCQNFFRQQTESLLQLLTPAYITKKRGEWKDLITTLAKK
Briefly: SENP8 protease inhibitors, SAR follow-up, biochemical, luminescence (AID 504501). In kind it is functional.

A further assay deals with T4, Caspase-3 (Homo sapiens, UniProt P42574).
T4 sequence (P42574 whole entry): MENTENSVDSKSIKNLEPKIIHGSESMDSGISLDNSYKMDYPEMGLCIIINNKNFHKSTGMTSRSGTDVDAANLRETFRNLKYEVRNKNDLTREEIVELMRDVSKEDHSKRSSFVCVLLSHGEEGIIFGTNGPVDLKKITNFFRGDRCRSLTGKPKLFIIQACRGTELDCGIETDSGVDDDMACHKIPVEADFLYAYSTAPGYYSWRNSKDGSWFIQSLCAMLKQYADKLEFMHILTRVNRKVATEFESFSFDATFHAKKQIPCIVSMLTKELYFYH
Briefly: SAR Analysis of small molecule inhibitors of Sentrin-specific proteases (SENPs) using a Caspase-3 Selectivity assay. [Related pubchem assays (depositor defined):AID2540, AID2599, AID434973, AID489001]. The assay is classed as functional.

Assay [9] addresses T5, Sentrin-specific protease 6 (Homo sapiens, UniProt Q9GZR1).
T5 sequence (Q9GZR1 whole entry): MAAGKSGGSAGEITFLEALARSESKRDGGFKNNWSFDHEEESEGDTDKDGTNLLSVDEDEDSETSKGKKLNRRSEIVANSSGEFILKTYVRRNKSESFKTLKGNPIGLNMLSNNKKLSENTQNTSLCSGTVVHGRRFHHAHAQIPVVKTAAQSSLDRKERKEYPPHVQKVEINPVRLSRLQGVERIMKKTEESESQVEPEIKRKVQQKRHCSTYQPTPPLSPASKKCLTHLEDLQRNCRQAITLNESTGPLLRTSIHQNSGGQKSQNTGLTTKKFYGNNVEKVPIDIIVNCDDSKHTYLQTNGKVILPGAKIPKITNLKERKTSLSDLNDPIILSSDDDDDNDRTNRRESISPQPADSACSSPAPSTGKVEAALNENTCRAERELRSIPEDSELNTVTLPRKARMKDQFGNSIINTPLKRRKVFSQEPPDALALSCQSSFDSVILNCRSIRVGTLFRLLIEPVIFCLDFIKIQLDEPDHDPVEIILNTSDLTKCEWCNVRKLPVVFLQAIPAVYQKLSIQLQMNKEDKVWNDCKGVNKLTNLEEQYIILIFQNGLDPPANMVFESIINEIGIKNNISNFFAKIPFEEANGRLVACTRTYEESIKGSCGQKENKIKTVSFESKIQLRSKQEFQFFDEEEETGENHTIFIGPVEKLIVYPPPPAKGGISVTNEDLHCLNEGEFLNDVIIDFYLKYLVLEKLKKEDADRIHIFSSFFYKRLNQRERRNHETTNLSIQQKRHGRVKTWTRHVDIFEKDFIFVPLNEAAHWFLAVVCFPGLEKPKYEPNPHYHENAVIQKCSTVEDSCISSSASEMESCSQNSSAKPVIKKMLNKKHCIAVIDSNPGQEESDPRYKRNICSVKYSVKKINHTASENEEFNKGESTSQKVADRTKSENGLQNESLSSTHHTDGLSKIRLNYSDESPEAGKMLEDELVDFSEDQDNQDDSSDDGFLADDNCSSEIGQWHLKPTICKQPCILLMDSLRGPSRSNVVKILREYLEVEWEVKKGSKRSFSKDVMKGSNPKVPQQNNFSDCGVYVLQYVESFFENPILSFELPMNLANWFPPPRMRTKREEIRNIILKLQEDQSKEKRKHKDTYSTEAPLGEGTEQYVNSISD
Briefly: SAR Analysis of small molecule inhibitors of Sentrin-specific protease 6 (SENP6) using a Luminescent assay. [Related pubchem assays (depositor defined):AID2582, AID2599]. The assay is classed as functional.

Assay [10] concerns the target T6, Apoptotic protease-activating factor 1 (Homo sapiens, UniProt O14727).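 Note: caspase-3 cleavage of fluorogenic Rh110 DEVD substrate downstream of apoptosome activation.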
T6 sequence (O14727 whole entry): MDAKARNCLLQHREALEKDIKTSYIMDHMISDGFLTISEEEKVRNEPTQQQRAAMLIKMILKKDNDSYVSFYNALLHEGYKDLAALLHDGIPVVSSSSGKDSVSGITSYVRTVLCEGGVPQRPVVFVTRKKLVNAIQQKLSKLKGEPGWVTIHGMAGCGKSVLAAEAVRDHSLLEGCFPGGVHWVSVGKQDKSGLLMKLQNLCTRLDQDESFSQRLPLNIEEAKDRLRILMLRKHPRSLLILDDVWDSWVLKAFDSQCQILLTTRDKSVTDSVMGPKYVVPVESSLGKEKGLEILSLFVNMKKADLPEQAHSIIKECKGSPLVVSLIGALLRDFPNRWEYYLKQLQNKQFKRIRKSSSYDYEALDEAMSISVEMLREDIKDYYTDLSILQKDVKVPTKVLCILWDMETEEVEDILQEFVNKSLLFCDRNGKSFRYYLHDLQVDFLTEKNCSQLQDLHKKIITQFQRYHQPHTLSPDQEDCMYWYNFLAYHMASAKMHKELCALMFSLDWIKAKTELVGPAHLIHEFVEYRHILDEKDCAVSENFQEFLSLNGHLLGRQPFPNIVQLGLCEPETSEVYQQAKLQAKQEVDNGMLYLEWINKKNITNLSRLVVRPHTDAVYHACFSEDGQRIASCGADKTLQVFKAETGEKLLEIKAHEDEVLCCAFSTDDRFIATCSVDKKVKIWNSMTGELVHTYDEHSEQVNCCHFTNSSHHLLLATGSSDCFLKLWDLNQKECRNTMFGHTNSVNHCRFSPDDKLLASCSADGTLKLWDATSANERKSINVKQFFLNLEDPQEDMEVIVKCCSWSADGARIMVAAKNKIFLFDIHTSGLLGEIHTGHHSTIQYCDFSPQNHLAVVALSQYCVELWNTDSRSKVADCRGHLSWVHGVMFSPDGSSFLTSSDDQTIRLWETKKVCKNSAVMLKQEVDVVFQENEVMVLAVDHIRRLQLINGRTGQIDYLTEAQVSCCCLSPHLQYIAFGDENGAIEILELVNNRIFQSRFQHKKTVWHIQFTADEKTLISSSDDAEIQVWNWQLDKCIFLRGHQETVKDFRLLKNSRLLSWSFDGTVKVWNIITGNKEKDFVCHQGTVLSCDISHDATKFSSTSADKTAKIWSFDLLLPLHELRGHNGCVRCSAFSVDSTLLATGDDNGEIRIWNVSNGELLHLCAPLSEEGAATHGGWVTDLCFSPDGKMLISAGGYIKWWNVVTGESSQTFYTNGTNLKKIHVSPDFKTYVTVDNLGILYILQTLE
Kind of assay: SAR analysis of small molecule Activators of Apaf-1 in a Fluorescent assay. The following applies: read-out: EC50_Mean. In kind it is functional.

Assay [11] can be described thus: growth suppression of PTEN-null colon cells, dose response, cell-based, HCT116 PTEN knockout (AID 1047).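 Note: HCT116 colon tumor cells with PTEN knocked out; cells exposed to compound for 60 hours before readout; potency for loss of cell viability measured by luminescence.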 In kind it is functional.
Assay [12] in a line: growth suppression of beta-catenin-knockout colon cells, dose response, cell-based, HCT116, human colon tumor (AID 1045).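 Note: HCT116 colon tumor cells with beta catenin knocked out; cells exposed to compound for 60 hours.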 The assay is classed as functional.
Assay [13] concerns the target Tyrosine-protein kinase JAK2 (Homo sapiens, UniProt O60674). The assay is classed as functional.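 Note: JAK2 tested as one member of a kinase panel.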
In assay [14] the target is Tyrosine-protein kinase JAK3 (Homo sapiens, UniProt P52333). The assay is classed as functional.
Tyrosine-protein kinase JAK3, sequence (P52333 whole entry): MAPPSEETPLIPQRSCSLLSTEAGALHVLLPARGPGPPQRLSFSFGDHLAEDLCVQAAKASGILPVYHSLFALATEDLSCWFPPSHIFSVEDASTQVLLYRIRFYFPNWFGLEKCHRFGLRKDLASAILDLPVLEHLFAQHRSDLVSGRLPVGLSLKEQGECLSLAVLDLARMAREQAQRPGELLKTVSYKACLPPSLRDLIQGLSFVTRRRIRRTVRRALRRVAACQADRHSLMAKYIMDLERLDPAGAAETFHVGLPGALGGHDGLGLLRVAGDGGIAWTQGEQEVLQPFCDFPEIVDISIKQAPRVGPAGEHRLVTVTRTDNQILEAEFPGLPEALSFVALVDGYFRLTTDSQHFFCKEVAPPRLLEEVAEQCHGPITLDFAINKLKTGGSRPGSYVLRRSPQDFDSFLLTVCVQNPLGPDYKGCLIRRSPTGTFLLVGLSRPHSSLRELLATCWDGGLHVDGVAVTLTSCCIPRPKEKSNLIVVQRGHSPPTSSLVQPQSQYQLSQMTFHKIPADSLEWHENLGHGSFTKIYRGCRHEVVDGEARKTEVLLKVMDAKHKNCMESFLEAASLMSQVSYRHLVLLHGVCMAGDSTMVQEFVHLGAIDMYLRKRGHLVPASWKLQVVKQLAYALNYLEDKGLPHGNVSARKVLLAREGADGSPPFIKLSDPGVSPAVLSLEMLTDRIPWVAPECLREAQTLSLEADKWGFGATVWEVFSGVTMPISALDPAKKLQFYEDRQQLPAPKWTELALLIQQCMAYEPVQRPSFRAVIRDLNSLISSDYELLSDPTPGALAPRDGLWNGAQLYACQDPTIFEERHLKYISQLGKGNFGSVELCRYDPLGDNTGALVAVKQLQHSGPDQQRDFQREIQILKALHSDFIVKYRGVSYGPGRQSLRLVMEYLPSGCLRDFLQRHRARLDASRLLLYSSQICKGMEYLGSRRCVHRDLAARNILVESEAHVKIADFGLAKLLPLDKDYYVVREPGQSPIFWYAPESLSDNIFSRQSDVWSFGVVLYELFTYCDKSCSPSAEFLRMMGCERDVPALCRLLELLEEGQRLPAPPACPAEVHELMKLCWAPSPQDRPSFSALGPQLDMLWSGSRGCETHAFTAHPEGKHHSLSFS

72 kDa type IV collagenase, sequence (P08253 whole entry): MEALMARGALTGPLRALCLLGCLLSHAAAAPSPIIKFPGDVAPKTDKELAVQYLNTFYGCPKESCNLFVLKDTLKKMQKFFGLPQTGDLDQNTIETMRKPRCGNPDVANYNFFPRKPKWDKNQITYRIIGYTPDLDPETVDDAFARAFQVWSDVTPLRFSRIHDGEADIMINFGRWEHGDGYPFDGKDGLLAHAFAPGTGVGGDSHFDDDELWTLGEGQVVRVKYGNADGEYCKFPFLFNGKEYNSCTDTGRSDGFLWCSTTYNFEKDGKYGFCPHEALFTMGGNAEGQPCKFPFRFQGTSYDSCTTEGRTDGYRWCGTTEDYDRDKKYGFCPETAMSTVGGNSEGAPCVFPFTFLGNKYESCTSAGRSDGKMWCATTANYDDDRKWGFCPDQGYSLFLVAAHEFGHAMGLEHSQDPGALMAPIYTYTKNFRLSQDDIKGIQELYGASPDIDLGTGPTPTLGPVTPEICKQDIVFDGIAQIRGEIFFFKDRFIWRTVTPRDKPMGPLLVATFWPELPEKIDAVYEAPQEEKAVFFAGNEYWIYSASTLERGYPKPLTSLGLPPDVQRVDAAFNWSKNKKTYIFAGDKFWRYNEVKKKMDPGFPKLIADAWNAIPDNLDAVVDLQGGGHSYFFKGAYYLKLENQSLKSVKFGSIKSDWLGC
Melanocortin receptor 4, sequence (P32245 whole entry): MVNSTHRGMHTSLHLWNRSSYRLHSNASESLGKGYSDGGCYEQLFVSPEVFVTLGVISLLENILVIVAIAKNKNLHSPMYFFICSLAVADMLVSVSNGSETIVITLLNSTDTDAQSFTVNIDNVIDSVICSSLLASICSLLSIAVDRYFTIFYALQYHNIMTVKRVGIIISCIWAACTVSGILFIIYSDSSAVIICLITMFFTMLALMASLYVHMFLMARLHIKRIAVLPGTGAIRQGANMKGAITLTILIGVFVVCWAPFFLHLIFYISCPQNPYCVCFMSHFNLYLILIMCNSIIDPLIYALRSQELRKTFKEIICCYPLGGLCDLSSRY
26S proteasome non-ATPase regulatory subunit 14, sequence (O00487 whole entry, the tested form may be a part): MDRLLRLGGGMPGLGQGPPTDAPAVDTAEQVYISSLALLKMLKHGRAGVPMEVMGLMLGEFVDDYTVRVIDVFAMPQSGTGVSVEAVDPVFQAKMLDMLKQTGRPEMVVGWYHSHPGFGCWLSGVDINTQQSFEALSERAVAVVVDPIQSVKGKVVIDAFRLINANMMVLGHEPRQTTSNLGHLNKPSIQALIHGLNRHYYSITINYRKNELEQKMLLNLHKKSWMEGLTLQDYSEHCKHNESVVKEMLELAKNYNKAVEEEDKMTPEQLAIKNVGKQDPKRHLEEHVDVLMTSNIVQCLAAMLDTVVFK
Tyrosine-protein kinase JAK2, sequence (O60674 whole entry): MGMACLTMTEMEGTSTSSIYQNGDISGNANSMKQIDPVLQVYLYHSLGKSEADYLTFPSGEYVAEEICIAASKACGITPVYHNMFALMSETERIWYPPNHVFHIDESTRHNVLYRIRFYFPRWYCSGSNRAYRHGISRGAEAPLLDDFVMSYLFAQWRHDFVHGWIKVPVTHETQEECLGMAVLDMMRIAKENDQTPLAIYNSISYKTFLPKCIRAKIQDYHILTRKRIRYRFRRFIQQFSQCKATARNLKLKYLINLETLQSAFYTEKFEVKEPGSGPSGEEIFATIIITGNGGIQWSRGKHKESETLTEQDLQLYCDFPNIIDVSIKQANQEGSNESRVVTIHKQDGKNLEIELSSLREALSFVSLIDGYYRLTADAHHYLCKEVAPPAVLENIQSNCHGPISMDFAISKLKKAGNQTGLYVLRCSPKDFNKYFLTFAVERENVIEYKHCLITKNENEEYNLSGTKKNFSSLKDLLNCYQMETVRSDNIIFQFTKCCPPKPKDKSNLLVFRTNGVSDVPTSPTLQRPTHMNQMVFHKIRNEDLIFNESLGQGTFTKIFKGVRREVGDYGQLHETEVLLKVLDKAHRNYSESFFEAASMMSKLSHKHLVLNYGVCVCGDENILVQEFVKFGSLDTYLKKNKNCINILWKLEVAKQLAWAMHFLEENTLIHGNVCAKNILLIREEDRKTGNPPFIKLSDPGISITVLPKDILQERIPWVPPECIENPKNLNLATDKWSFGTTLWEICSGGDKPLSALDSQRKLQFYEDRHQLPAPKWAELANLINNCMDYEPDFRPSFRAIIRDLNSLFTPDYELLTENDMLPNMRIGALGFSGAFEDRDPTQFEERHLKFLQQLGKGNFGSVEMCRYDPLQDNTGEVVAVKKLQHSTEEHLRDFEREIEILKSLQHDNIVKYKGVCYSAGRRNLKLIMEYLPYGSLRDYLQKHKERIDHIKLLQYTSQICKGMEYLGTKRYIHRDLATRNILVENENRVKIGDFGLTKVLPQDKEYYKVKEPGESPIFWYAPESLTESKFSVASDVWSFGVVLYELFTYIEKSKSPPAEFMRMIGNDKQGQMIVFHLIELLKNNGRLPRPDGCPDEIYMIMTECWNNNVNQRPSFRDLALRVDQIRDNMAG
Potassium voltage-gated channel subfamily KQT member 2, sequence (O88943 whole entry): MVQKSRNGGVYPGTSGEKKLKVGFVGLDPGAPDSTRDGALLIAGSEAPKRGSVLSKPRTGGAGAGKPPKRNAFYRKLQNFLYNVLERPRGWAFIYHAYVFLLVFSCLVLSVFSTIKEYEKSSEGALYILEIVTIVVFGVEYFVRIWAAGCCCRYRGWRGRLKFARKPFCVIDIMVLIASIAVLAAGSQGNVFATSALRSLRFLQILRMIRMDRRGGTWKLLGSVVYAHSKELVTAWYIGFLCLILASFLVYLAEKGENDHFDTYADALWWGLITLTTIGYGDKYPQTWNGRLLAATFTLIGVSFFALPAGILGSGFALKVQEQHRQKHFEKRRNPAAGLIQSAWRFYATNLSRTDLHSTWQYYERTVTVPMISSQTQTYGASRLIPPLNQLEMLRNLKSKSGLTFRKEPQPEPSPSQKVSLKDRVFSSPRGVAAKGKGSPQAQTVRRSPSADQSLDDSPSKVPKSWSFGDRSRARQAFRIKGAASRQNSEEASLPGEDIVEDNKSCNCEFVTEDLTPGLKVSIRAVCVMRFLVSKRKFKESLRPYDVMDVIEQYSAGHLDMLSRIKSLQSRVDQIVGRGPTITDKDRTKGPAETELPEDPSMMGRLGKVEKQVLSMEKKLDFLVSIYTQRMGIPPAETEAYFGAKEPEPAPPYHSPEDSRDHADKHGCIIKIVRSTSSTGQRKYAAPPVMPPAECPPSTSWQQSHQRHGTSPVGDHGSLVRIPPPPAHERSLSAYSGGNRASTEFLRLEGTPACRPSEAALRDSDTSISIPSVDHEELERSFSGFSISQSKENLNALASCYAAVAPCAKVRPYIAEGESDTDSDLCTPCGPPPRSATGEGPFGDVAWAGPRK
Glyceraldehyde-3-phosphate dehydrogenase, sequence (P04406 whole entry): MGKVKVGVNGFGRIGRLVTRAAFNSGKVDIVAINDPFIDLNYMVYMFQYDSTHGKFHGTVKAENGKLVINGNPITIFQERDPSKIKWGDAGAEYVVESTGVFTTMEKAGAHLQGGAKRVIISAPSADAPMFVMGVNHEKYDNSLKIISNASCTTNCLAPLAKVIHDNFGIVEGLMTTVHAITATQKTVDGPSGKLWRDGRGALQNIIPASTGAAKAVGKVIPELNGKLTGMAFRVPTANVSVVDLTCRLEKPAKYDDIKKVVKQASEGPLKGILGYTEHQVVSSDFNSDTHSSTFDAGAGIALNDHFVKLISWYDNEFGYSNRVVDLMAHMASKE

Regarding `CCOC(=O)N1CCN(CCC(=O)c2ccc(OC)cc2)CC1`, the IC50 (on Melanocortin receptor 4; in [1]) was > 64.5 µM (inactive) throughout.
Consider `Cc1cc(C)c(/N=C2\CCCN2Cc2ccccc2)c(C#N)c1`, for which the IC50 in [2] was 1.99 µM (active); in assay [3] it was > 100 µM (not active).
As to `O=Cc1sc(Nc2ccccc2)nc1Cl`, the IC50 in assay [4] was > 100 µM (inactive); on Prothrombin, 11.4 µM (active); in assay [5], 8.23 µM (active).
For `O=C(NNc1ncnc2ccccc12)c1cccc(Cl)c1`, the IC50 in assay [4] was > 100 µM (inactive); in assay [6], 18.5 µM (active); on Prothrombin, 71.3 µM (active); in [5], 24.8 µM (active).
Take `COc1ccc(OC)c2sc(NC(=O)c3ccc(Br)s3)nc12`: the IC50 (in assay [7]; in assay [8]; at Caspase-3; in assay [9]) was > 99 µM (inactive) in each case.
In the case of `COc1ccccc1NC(=O)CCS(=O)(=O)c1ccc2c(c1)NC(=O)C(C)S2` (configuration not stated), in [10], the EC50 is > 100 µM (inactive).
For `CCc1ccc(OCC(=O)NC(N=C(S)Nc2ccccc2OC)C(Cl)(Cl)Cl)cc1` (configuration not stated), the EC50 was 9.76 µM (active) in assay [11] and 9.32 µM (active) in assay [12]. Besides, the IC50 (at Melanocortin receptor 4; in assay [1]) was > 64.6 µM (inactive) throughout.
Turning to `O=c1[nH]c2cnc(-n3cnc4ccc(F)cc43)nc2n1C1CCOc2c(F)cccc21` (configuration not stated), the Ki in assay [13] and in assay [14] was 0.00501 µM (active) each time.

These data come from ChEMBL document CHEMBL1201862, “PubChem BioAssay data set” (2004).
